The term IC50 denotes the concentration that inhibits the measured activity by half. A lower IC50 goes with inhibition by little substance.

Our source for the IC50 values is patent publication US8691820B2, “CDK inhibitors” (Curis, Inc., priority 2008, dated 2014).

The assay deals with T1, CDK2/cyclinA (Homo sapiens, UniProt P24941).
T1 construct: C-terminal 6His-tagged human full length cdk2 (MW=35 kDa); 6His (C); made in house; host or cells: Sf21 insect cells (baculovirus)
Nature of the assay: CDK2 kinase assay (33P-ATP, Histone H1 substrate). Format: biochemical. The settings on record: 1 μM ATP, 5 μM Histon H1, 2 hours at room temperature. An excerpt: CDK2/cyclinA (Accession number for CDK2; EMBL M68520, for cyclin A; EMBL X51688): C-terminal 6His-tagged human full length cdk2 (MW=35 kDa), and N-terminal GST-tagged human full length cyclin A (MW=75 kDa) were expressed individually with baculovirus system in Sf21 insect cells. Recombinant cdk2 protein was purified with Ni2+/NTA agarose and then activated using CAK and repurified by Q Sepharose and Ni2+/NTA agarose. Recombinant cyclin A was purified using glutathione-agarose. They were then mixed in vitro to form protein complex. Recombinant protein complex was measured to be 67% in purity with SDS-PAGE and Coomassie blue staining. Specific activity of purified enzyme was measured to be 158 U/mg, where one unit of cdk2/cyclinA activity is defined as 1 nmol phosphate incorporated into 0.1 mg/ml histone H1 per minute at 30° C. with a final ATP concentration of […]. Enzyme was stored at a concentration of 0.1 mg/ml in 50 mM Tris/HCl pH7.5, 150 mM NaCl, 0.1 mM EGTA, 0.03% Brij-35, 270 mM sucrose, 1 mM benzamidine, 0.2 mM PMSF, 0.1% 2-mercaptoethanol. Frozen solution.
Histon H1 (Substrate for CDK2): Histone H1 (Sigma cat#H4524), was purified as a lysine rich fraction from calf thymus with 93% purity (MW=21.5 kDa). Purified protein was stored at a concentration of 20 mg/ml=930 μM in distilled water.
[…] (0.5 nmol) and 5 μM Histon H1 were mixed in the reaction buffer (20 mM HEPES (pH 7.5), 10 mM MgCl2, 1 mM EGTA, 0.02% Brij 35, 0.02 mg/ml BSA, 0.1 mM Na3VO4, 2 mM DTT) with final concentration of 1 μM ATP and 1% DMSO. The reaction was incubated for 2 hours at room temperature and conversion rate of ATP is about 4.5%. An equal volume of 25% TCA was added to stop the reaction and precipitate the labeled peptides. Precipitated proteins were trapped onto glass fiber B filterplates and excess […] p33 ATP was washed off. The plates were allowed to air-dry prior to the addition of 30 uL/well of Packard Microscint 20. The amount of incorporated isotope was measured using a Perkin Elmer TopCount plate reader. Different concentrations of compounds were added to reaction to assess the activity of compounds to inhibit […]. IC50 was calculated using Prism software with sigmoidal dose-response curve fitting.
The following TABLE B lists compounds representative of the invention and their activity in the CDK2 assay. In this assay, the following grading was used: I≧10 μM, 10 μM>II>1 μM, 1 μM>III>0.1 μM, and IV≦0.1 μM for IC50.

In the case of `CONC(=O)/C=C/c1ccc(C(=O)Nc2ncc(SCc3ncc(C(C)(C)C)o3)s2)cc1` [Compound 38, (E)-N-(5-((5-tert-butyloxazol-2-yl)methylthio)thiazol-2-yl)-4-(3-(methoxyamino)-3-oxoprop-1-enyl)benzamide], the IC50 is ≤ 100 nM.
As for `CN(O)C(=O)/C=C/c1ccc(C(=O)Nc2ncc(SCc3ncc(C(C)(C)C)o3)s2)cc1` [Compound 39, (E)-N-(5-((5-tert-butyloxazol-2-yl)methylthio)thiazol-2-yl)-4-(3-(hydroxy(methyl)amino)-3-oxoprop-1-enyl)benzamide], the figure is 1000 to 10000 nM.
As for `CC(C)(C)c1cnc(CSc2cnc(NC(=O)CCCCCCC(=O)n3nnc4ccccc43)s2)o1` [Compound 40, 8-(1H-benzo[d][1,2,3]triazol-1-yl)-N-(5-((5-tert-butyloxazol-2-yl)methylthio)thiazol-2-yl)-8-oxooctanamide], the figure is ≤ 100 nM; as for `CC(C)(C)c1cnc(CSc2cnc(NC(=O)CCCCCCC(=O)Nc3n[nH]c4ccccc34)s2)o1` [Compound 41], ≤ 100 nM; as for `CC(C)(C)c1cnc(CSc2cnc(NC(=O)CCCCCCC(=O)Nc3cn[nH]c3)s2)o1` [Compound 42, N^1-(5-((5-tert-butyloxazol-2-yl)methylthio)thiazol-2-yl)-N^8-(1H-pyrazol-4-yl)octanediamide], ≤ 100 nM.
`CC(C)(C)c1cnc(CSc2cnc(NC(=O)CCCCCCC(=O)n3ncc(-c4ccc(F)cc4)c3N)s2)o1` [Compound 44, 8-(5-amino-4-(4-fluorophenyl)-1H-pyrazol-1-yl)-N-(5-((5-tert-butyloxazol-2-yl)methylthio)thiazol-2-yl)-8-oxooctanamide]: the IC50 is ≤ 100 nM.
Regarding `CC(C)(C)c1cnc(CSc2cnc(NC(=O)CCCCCCC(=O)Nc3[nH]ncc3-c3ccc(F)cc3)s2)o1` [Compound 45], the 50% inhibitory concentration (IC50) was ≤ 100 nM.
For `CC(C)(C)c1cnc(CSc2cnc(NC(=O)CC3Nc4ccccc4NC3=O)s2)o1` (stereo not shown) [Compound 46, N-(5-((5-tert-butyloxazol-2-yl)methylthio)thiazol-2-yl)-2-(3-oxo-1,2,3,4-tetrahydroquinoxalin-2-yl)acetamide] the value was ≤ 100 nM; for `CC(C)(C)c1cnc(CSc2cnc(NC(=O)CCCCCCC(=O)Nc3nc4ccccc4[nH]3)s2)o1` [Compound 47], ≤ 100 nM; for `CC(C)(C)c1cnc(CSc2cnc(NC(=O)CCCCCCC(=O)n3nc(N)c4ccccc43)s2)o1` [Compound 48], ≤ 100 nM.
For `CC(C)(C)c1cnc(CSc2cnc(NC(=O)CCCCCCC(=O)Nc3c[nH]c4ccccc34)s2)o1` [Compound 50] the value was ≤ 100 nM; for `CN1OC(=O)CC1c1ccc(C(=O)Nc2ncc(SCc3ncc(C(C)(C)C)o3)s2)cc1` (stereo not shown) [Compound 51, N-(5-((5-tert-butyloxazol-2-yl)methylthio)thiazol-2-yl)-4-(2-methyl-5-oxoisoxazolidin-3-yl)benzamide], ≤ 100 nM; for `CC(C)(C)c1cnc(CSc2cnc(NC(=O)CCCCCCC(=O)Nc3cc(-c4cccs4)n[nH]3)s2)o1` [Compound 52], ≤ 100 nM.
For `CC(C)(C)c1cnc(CSc2cnc(NC(=O)Oc3ccc(OCCCC(=O)Nc4ccccc4N)cc3)s2)o1` [Compound 54, 4-(4-(2-Aminophenylamino)-4-oxobutoxy)phenyl 5-((5-tert-butyloxazol-2-yl)methylthio)thiazol-2-ylcarbamate], the IC50 is ≤ 100 nM.
As for `CC(C)(C)c1cnc(CSc2cnc(NC(=O)Cc3cccc(OCCCC(=O)Nc4ccccc4N)c3)s2)o1` [Compound 56, N-(2-aminophenyl)-4-(3-(2-(5-((5-tert-butyloxazol-2-yl)methylthio)thiazol-2-ylamino)-2-oxoethyl)phenoxy)butanamide], the figure is ≤ 100 nM; as for `CC(C(=O)Nc1ncc(SCc2ncc(C(C)(C)C)o2)s1)c1ccc(OCCCC(=O)Nc2ccccc2N)cc1` (stereo not shown) [Compound 57, N-(2-aminophenyl)-4-(4-(1-(5-((5-tert-butyloxazol-2-yl)methylthio)thiazol-2-ylamino)-1-oxopropan-2-yl)phenoxy)butanamide], ≤ 100 nM.
